# Measured values as given in US20090312265A1, “NOVEL ANTIMICROBIAL PEPTIDES AND USE THEREOF” (priority 2006, published 2009).
# Tested on: E. coli bacteria
# Test: Antibacterial effect of HB-EGF in vitro (bacterial survival)
# Format: cell-based
# Conditions: HB-EGF at 6 μM, 2×10^6 cfu/ml E. coli, 10 mM Tris, pH 7.4
# Procedure: The antibacterial effect of HB-EGF (Q99075, SEQ ID NO: 19) was evaluated in vitro. 2×10^6 cfu/ml of E. coli bacteria were incubated in 50 μl with HB-EGF at 6 μM in 10 mM Tris, pH 7.4 buffer (Tris). The difference in bacterial survival was significant for the HB-EGF treated material vs. the control (no HB-EGF present), i.e. HB-EGF does in it self posses an antibacterial effect, although less pronounced than the peptides being derived from it.
substance,measurement,value
HB-EGF: Human heparin-binding EGF-like growth factor (accession code Q99075),difference in bacterial survival vs. control,significant
